# Data: patent US4242350A, “Antisecretory thiadiazole derivatives, processes for their manufacture and pharmaceutical compositions containing them” (Imperial Chemical Industries Limited, priority 1978, dated 1980)
# How the values were obtained:
# [1] = oral tolerance in dogs; assay type: in vivo; settings: dogs dosed orally with 100 mg./kg.
# Source text: No overt toxicity or side effects were noted during the dog tests.
# [2] = oral toxicity in rodents; assay type: in vivo; settings: dosed orally to rodents at 300 mg/kg
smiles,measurement,setting,value
"CNC(=NC#N)NCCSCc1nsc(NC(=N)N)n1 [3-[2-(2-cyano-3-methylguanidino)ethylthiomethyl]-5-guanidino-1,2,4-thiadiazole]",tolerance,[1],well tolerated
same,toxicity,[2],no toxicity
